Measurements: article PMC10057893, “Synthesis and Biological Evaluation of New Schiff Bases Derived from 4-Amino-5-(3-fluorophenyl)-1,2,4-triazole-3-thione” (Molecules, 2023)
Converted amounts (≈) assume the structure as drawn. Like-named read-outs stand apart in the source and are kept apart here.

Experiments:
[1] = test system: PC3; assay: MTT cell viability assay; type: cell-based, human; conditions: for IC50: Homo sapiens, PC-3, PC3, MTT, read-out: Cytotoxic activity IC50
Experimental: (§1) All the cell lines were purchased from the American Type Culture Collection (ATCC, Rockville, MD, USA) and cultured in strictly defined conditions according to the recommended ATCC protocol. The PC3 cells were cultured in RPMI 1640 (Roswell Park Memorial Institute, Biowest SAS, Nuaillé, France), while the MDA-MB-231 and HaCaT cells were maintained in DMEM (Dulbecco’s Modified Eagle’s Medium, Biowest SAS, Nuaillé, France) supplemented with 1% streptomycin and penicillin and in 10% heat-inactivated fetal bovine serum (FBS, Gibco BRL San Francisco, CA, USA) with 1% streptomycin and penicillin. The cells were incubated in a 37 °C/5% CO2 humidified incubator. They were cultured until 80–90% confluence was achieved. Then, they were harvested by treatment with 0.25% trypsin-0.02% EDTA (Gibco BRL, San Francisco, CA, USA) and used in the experiments. Untreated cells were used as a control. […] After 24 h of incubation, the culture medium was replaced with a fresh medium. […] Then, the medium was aspirated and formed formazan crystals were solubilized by adding isopropanol-DMSO mixture (1:1 vol). The intensity of the dissolved crystals was measured using a UVM 340 reader (ASYS Hitech GmbH, Eugendorf, Austria) at a wavelength of 570 nm. Cell viability was estimated by the percentage of MTT reduction in cells to which the tested compounds were added, compared to the control sample, where only the medium was added. The experiments were repeated three times. The IC50 was calculated using GraphPad Prism 9.0.0 (GraphPad Software).

[2] = test system: MDA-MB-231; assay: MTT cell viability assay; type: cell-based, human; conditions: for IC50: Homo sapiens, MDA-MB-231, MTT, read-out: Cytotoxic activity IC50
Experimental: as §1

[3] = test system: Candida krusei ATCC 14243; assay: Broth microdilution MIC/MFC, antifungal; type: cell-based; conditions: Pichia kudriavzevii, ATCC14243
Experimental: (§2) To determine the antifungal activity of the newly synthesized Schiff bases against the reference strains of Candida spp., the broth microdilution method was used according to the EUCAST [52] and Clinical and Laboratory Standards Institute (CLSI) guidelines with some modifications to the medium. Before in vitro antifungal activity detection, the basic concentration of 1000 µg/mL of each compound was prepared with Mueller–Hinton broth (BioMaxima, Lublin, Poland) supplemented with 2% glucose (MHB+2% glucose). […] The final concentrations of the Schiff bases ranged from […] to 1000 µg/mL. All the reference strains of Candida spp. used were first subcultured to the Mueller–Hinton agar medium (BioMaxima, Lublin, Poland) with 2% glucose (MHA +2% glucose) at 37 °C for 24 h. Next, 2 µL of appropriate fungal suspensions was added to each well containing 100 µL of MHB + 2% glucose and the various concentrations of the tested Schiff bases.
(§3) After incubation, 5 μL of the broth media cultured with bacteria or fungi were removed from each well of the plates used in the MIC experiments. Next, they were culturd onto the surface of the MHA medium (BioMaxima, Lublin, Poland) plate for bacteria or MHA +2% glucose plate for yeasts. The inoculated plates were incubated in the conditions mentioned above. After incubation, a visual reading of MBC or MFC values was made. […] Three replicates for each strain and compound were performed.

[4] = test system: Candida tropicalis ATCC 1369; assay: Broth microdilution MIC/MFC, antifungal; type: cell-based; conditions: ATCC1369
Experimental: as §2, §3

[5] = test system: Candida auris CDC B11903; assay: Broth microdilution MIC/MFC, antifungal; type: cell-based; conditions: Candidozyma auris, CDCB11903
Experimental: as §2, §3

[6] = test system: Candida albicans ATCC 10231; assay: Broth microdilution MIC/MFC, antifungal; type: cell-based; conditions: for MIC: ATCC10231; for MFC: ATCC10231, read-out: MFC
Experimental: as §2, §3

[7] = test system: Candida lusitaniae ATCC 3449; assay: Broth microdilution MIC/MFC, antifungal; type: cell-based; conditions: Clavispora lusitaniae, ATCC3449
Experimental: as §2, §3

[8] = test system: Candida glabrata ATCC 15126; assay: Broth microdilution MIC/MFC, antifungal; type: cell-based; conditions: Nakaseomyces glabratus, ATCC15126
Experimental: as §2, §3

[9] = test system: Candida glabrata ATCC 90030; assay: Broth microdilution MIC/MFC, antifungal; type: cell-based; conditions: Nakaseomyces glabratus, ATCC90030
Experimental: as §2, §3

[10] = test system: Escherichia coli ATCC 25922; assay: Broth microdilution MIC/MBC, antibacterial; type: cell-based; conditions: ATCC25922, Escherichia coli ATCC 25922
Experimental: (§4) The minimal inhibitory concentration (MIC) was determined with the microdilution technique using 96-well polystyrene microplates (Medlab, Poland), as indicated by the European Committee on Antimicrobial Susceptibility Testing (EUCAST) guidelines. In this process, stock solutions of each tested Schiff base dissolved in dimethylsulphoxide (DMSO, Stanlab, Poland) were used at a concentration of 50 mg/mL. Before in vitro antibacterial activity detection, the basic concentration of 1000 µg/mL of each compound was prepared with Mueller–Hinton broth medium (MHB, BioMaxima, Lublin, Poland). The experiment was prepared using Mueller–Hinton broth medium in 96-well microplates. A series of two-fold dilutions of the tested compounds in the concentration range from 0.49 to 1000 μg/mL was made in culture broth medium. Then, 2 μL of bacterial inoculum with a density of 0.5 McFarland standard was added to each well. Each well was filled with a total volume of 100 μL. Then, the microtiter plates were incubated for 18 ± 2 h at 35 °C. After the incubation, the results were spectrophotometrically determined in Biotek ELx800 (Biokom, Janki, Poland) at 600 nm (OD600). The lowest concentration of the tested compounds with the absence of bacterial growth was determined as an MIC. Three replicates for each strain and compound were performed.
as §3

[11] = test system: Micrococcus luteus ATCC 10240; assay: Broth microdilution MIC/MBC, antibacterial; type: cell-based; conditions: ATCC10240
Experimental: as §4, §3

[12] = test system: Pseudomonas aeruginosa ATCC 27853; assay: Broth microdilution MIC/MBC, antibacterial; type: cell-based; conditions: ATCC27853
Experimental: as §4, §3

[13] = test system: Staphylococcus aureus ATCC 6538; assay: Broth microdilution MIC/MBC, antibacterial; type: cell-based; conditions: ATCC6538
Experimental: as §4, §3

[14] = test system: Staphylococcus epidermidis ATCC 12228; assay: Broth microdilution MIC/MBC, antibacterial; type: cell-based; conditions: ATCC12228
Experimental: as §4, §3

[15] = test system: Bacillus subtilis ATCC 6633; assay: Broth microdilution MIC/MBC, antibacterial; type: cell-based; conditions: ATCC6633
Experimental: as §4, §3

[16] = test system: Klebsiella pneumoniae ATCC 13883; assay: Broth microdilution MIC/MBC, antibacterial; type: cell-based; conditions: ATCC13883, Klebsiella pneumoniae ATCC 13883
Experimental: as §4, §3

[17] = MTT cell viability assay; type: cell-based; conditions: human, HaCaT cells (immortal keratinocytes), HaCaT normal cell line, read-out: Cytotoxic activity IC50 (converted)
Experimental: as §1

melting point | MIC [3] | MIC [4] | MIC [5] | MIC [6] | MIC [7] | MIC [8] | MIC [9] | MIC [11] | MIC [12] | MIC [13] | MIC [14] | MIC [15] | SMILES | IC50 ([1]; 72 h (table footnote)) | IC50 ([1]; same value in µg/mL) | IC50 ([2]; 72 h (table footnote)) | IC50 ([2]; same value in µg/mL) | MFC [6] | IC50 at 72 h ([17]; 72 h (table footnote)) | IC50 at 72 h ([17]; same value in µg/mL) | also measured
227 to 230 °C | > 1000 µg/mL | > 1000 µg/mL | > 1000 µg/mL | 250 µg/mL (≈ 0.8 mM) | > 1000 µg/mL | > 1000 µg/mL | > 1000 µg/mL | > 1000 µg/mL | > 1000 µg/mL | > 1000 µg/mL | > 1000 µg/mL | > 1000 µg/mL | Cc1ccc(C=Nn2c(-c3cccc(F)c3)n[nH]c2=S)cc1 [RO1, 5-(3-fluorophenyl)-4-[(4-methylbenzylidene)amino]-2,4-dihydro-3H-1,2,4-triazole-3-thione] | > 100 µM | > 31.2 µg/mL | > 100 µM | > 31.2 µg/mL | > 1000 µg/mL | > 100 µM | > 31.2 µg/mL | MIC [10]: > 1000 µg/mL; MIC [16]: > 1000 µg/mL
232 to 234 °C | > 1000 µg/mL | > 1000 µg/mL | > 1000 µg/mL | 1000 µg/mL (≈ 3.2 mM) | > 1000 µg/mL | > 1000 µg/mL | > 1000 µg/mL | 125 µg/mL (≈ 0.4 mM) | > 1000 µg/mL | 125 µg/mL (≈ 0.4 mM) | 250 µg/mL (≈ 0.8 mM) | 500 µg/mL (≈ 1.6 mM) | Cc1cccc(C=Nn2c(-c3cccc(F)c3)n[nH]c2=S)c1 [RO9, 5-(3-fluorophenyl)-4-[(3-methylbenzylidene)amino]-2,4-dihydro-3H-1,2,4-triazole-3-thione] | > 100 µM | > 31.2 µg/mL | > 100 µM | > 31.2 µg/mL | > 1000 µg/mL | > 100 µM | > 31.2 µg/mL | MBC [11]: > 1000 µg/mL; MBC [13]: > 1000 µg/mL; MBC [14]: > 1000 µg/mL; MBC [15]: > 1000 µg/mL
 |  |  |  |  |  |  |  |  |  |  |  |  | COc1cccc2c1C(=O)c1c(O)c3c(c(O)c1C2=O)C[C@@](O)(C(=O)CO)C[C@@H]3O[C@H]1C[C@H](N)[C@H](O)[C@H](C)O1 [Doxorubicin, reference compound] | 0.3 µM |  | 0.83 µM |  |  | 0.3 µM |  | SI (Selectivity Index) ([1]; IC50 normal cell line (HaCaT)/IC50 PC3): 1; SI (Selectivity Index) ([2]; IC50 normal cell line (HaCaT)/IC50 MDA-MB-231): 0.36
203 to 204 °C | 1000 µg/mL (≈ 3.05 mM) | 1000 µg/mL (≈ 3.05 mM) | 1000 µg/mL (≈ 3.05 mM) | 500 µg/mL (≈ 1.52 mM) | > 1000 µg/mL | > 1000 µg/mL | 500 µg/mL (≈ 1.52 mM) | > 1000 µg/mL | > 1000 µg/mL | > 1000 µg/mL | > 1000 µg/mL | > 1000 µg/mL | COc1cccc(C=Nn2c(-c3cccc(F)c3)n[nH]c2=S)c1 [RO11, 5-(3-fluorophenyl)-4-[(3-methoxybenzylidene)amino]-2,4-dihydro-3H-1,2,4-triazole-3-thione] | > 100 µM | > 38.8 µg/mL | > 100 µM | > 38.8 µg/mL | 1000 µg/mL (≈ 3.05 mM) | > 100 µM | > 38.8 µg/mL | MFC [9]: > 1000 µg/mL; MIC [10]: > 1000 µg/mL; MIC [16]: > 1000 µg/mL
